# Like-named read-outs stand apart in the source and are kept apart here. Where no end group is shown, it is not given here.
# Assays:
# PAF receptor [1] = target: T1, PAF receptor (Homo sapiens, UniProt P25105); experiment: [3H]‐PAF binding to human platelet membranes
# T1 construct: from tissue; host or cells: human platelet membranes
# Source text: FIGURE 5 Pharmacological profile of PAR receptor binding to platelet membranes.
# PAF receptor [2] = target: PAF receptor (Oryctolagus cuniculus, UniProt G1TEI7); experiment: [3H]‐PAF receptor binding to rabbit platelet membranes; conditions: read-out: [3H]‐PAF receptor binding inhibition constant (Ki, nM; Mean ± SEM)
# Sequence of PAF receptor (Oryctolagus cuniculus, UniProt G1TEI7) (G1TEI7 1-342): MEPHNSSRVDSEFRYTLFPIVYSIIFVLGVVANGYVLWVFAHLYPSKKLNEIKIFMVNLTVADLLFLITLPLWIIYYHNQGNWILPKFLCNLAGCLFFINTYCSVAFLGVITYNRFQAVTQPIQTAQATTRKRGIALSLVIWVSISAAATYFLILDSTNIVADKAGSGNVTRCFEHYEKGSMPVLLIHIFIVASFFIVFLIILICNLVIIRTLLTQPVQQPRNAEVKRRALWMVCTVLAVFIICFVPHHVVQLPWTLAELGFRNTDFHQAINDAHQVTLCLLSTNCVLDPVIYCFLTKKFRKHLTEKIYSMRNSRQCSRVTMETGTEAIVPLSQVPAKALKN
# Source text: (§1) FIGURE 5 Pharmacological profile of PAR receptor binding to platelet membranes. Figure 5A depicts the concentration‐dependent inhibition by unlabeled PAF receptor antagonists of different affinities for [^3H]‐PAF binding to rabbit platelet membranes in vitro. Figure 5B illustrates the correlation between the pharmacological profile of PAF receptor antagonists competing for [^3H]‐PAF binding to rabbit and human platelet membranes.
# [3] = tested on: human conjunctival epithelial cells (HCECs); parameters: method as in PMID 9261768; conditions: cited from earlier work; for EC50: read-out: EC50 for increase of [3H]‐IPs
# HIS and PAF receptors = tested on: HIS and PAF receptors; parameters: method as in PMID 1793070; conditions: cited from earlier work
# [4] = tested on: patients suffering from rhinitis; parameters: method as in PMID 23459334, PMID 31470575; conditions: oral, 4‐week period of dosing; cited from earlier work
# [5] = parameters: method as in PMID 31816871; conditions: cited from earlier work
# PAF receptor [6] = target: T1, PAF receptor; experiment: [3H]‐WEB‐2086 binding to human platelet membranes; conditions: read-out: [3H]‐WEB‐2086 binding inhibition constant (Ki, nM; Mean ± SEM)
# photoreceptors = tested on: photoreceptors; parameters: method as in PMID 15979612; conditions: retinal ischemia / oxidative stress; cited from earlier work
# [7] = parameters: method as in PMID 20454616, PMID 21804199, PMID 23355413, PMID 28341636; conditions: cited from earlier work
# human chronic diseases = tested on: human chronic diseases; parameters: method as in PMID 31816871; conditions: ulcerative colitis, myocardiac infarction, organ failure associated with pancreatitis, cognitive decline after bypass surgery, psoriasis; cited from earlier work
# asthma patients = tested on: asthma patients; parameters: method as in PMID 31816871; conditions: cited from earlier work
# rats = tested on: rats; parameters: method as in PMID 9845270; conditions: streptozotocin‐induced diabetes in rats; cited from earlier work
# [8] = parameters: method as in PMID 31816871; conditions: cited from earlier work; remark: listed apart in the source
# [9] = tested on: laser‐induced choroidal neovascularization (CNV) in mice; parameters: method as in PMID 23826375; conditions: cited from earlier work
# patients [10] = tested on: patients; parameters: method as in PMID 31816871; conditions: cited from earlier work
# [11] = tested on: human conjunctival epithelial cells (HCECs); parameters: method as in PMID 19513187; conditions: cited from earlier work
# HCEPI/CEPI‐17‐CL4 cells = tested on: HCEPI/CEPI‐17‐CL4 cells; parameters: method as in PMID 9856766, PMID 9559896, PMID 9863665, PMID 10235542, PMID 20187806; conditions: cited from earlier work
# [12] = tested on: human conjunctival epithelial cells (HCECs); parameters: method as in PMID 19513187; conditions: cited from earlier work; remark: listed apart in the source
# [13] = tested on: PAF receptors on rabbit and human platelets; experiment: PAF receptor binding on platelets; conditions: Figure 5
# Source text: as §1
# [14] = target: PAF receptors in the bovine and rabbit cornea; parameters: method as in PMID 10067986; conditions: cited from earlier work
# [15] = parameters: method as in PMID 31816871; conditions: cited from earlier work; remark: listed apart in the source
# naïve mice = tested on: naïve mice; parameters: method as in PMID 15326102, PMID 20961214, PMID 24754407, PMID 2891830, PMID 8529415; conditions: cited from earlier work
# rod outer segments = tested on: rod outer segments; parameters: method as in PMID 1427144; conditions: lithium‐ and light‐induced retinal degenerations animal models; cited from earlier work
# animals = tested on: animals; parameters: method as in PMID 7859817; conditions: intravitreally injected PAF, pretreatment; cited from earlier work
# patients [16] = tested on: patients; parameters: method as in PMID 31816871; conditions: cited from earlier work; remark: listed apart in the source
# [17] = tested on: retinal capillary endothelial cells; parameters: method as in PMID 12356842; conditions: rat pups exposed to high levels of oxygen (model of ROP), prior treatment; cited from earlier work
# [18] = human platelet membranes, read-out: [3H]‐PAF receptor binding inhibition constant (Ki, nM; Mean ± SEM)
# T1 sequence (P25105 whole entry): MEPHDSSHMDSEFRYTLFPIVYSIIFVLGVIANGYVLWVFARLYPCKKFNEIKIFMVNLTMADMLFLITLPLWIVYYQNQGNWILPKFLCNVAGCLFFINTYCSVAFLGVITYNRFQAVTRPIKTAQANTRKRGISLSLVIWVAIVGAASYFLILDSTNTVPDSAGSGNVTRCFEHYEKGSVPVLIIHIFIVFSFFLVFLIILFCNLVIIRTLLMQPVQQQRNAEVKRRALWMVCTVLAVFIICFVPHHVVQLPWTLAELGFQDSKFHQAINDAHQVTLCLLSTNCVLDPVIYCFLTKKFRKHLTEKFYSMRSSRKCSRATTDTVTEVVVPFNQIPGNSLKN
compound,measurement,setting,value
CC(C)(CCN1CCN(C(=O)C2CSC(c3cccnc3)N2)CC1)c1ccccc1 (stereo not drawn) [YM‐264],Ki,PAF receptor [1]; [18],7.3 ± 1.8 nM
same,Ki,PAF receptor [2],5.1 ± 0.6 nM
"substance P (RPKPQQFFGLM; ends and bridges not checked; UniProt P20366 58-68, looked up)",Stimulation of [3H]‐IPs (in words),[3],inactive
"Cc1cncc(CN2CCC(=C3c4ccc(Cl)cc4CCc4cccnc43)CC2)c1 [SCH‐37370 (Rupatadine), Rupatadine]",Affinities and potencies at both HIS and PAF receptors (in words),HIS and PAF receptors,micromolar
same,"Nasal discharge, sneezing and nasal itching",[4],significantly reduced
same,Ocular itching,[4],significantly reduced
same,Effects in chronic idiopathic urticaria and allergic rhino‐conjunctivitis,[5],beneficial effects
C[C@@H]1S[C@H](c2cccnc2)N(C)C1=O [SM‐10661],Ki,PAF receptor [1]; [18],22800 nM
same,Ki,PAF receptor [6],9850 ± 1350 nM
same,Ki,PAF receptor [2],7490 ± 875 nM
CC1=C(C(=O)OCCOc2ccc(Cl)c(Cl)c2)C(C)C(C(=O)OC(CN2CCOCC2)CN2CCOCC2)=C(C)N1 (stereo not drawn) [LAU0901],Protection of photoreceptors and their terminals,photoreceptors,efficaciously protected
C#Cc1cccc2c1c(C(=O)c1ccc(Cn3c(C)nc4cnccc43)c(F)c1)cn2C(=O)N(C)C [A‐137491],Ki,PAF receptor [1],3.9 ± 0.5 nM
C#Cc1cccc2c1c(C(=O)c1ccc(Cn3c(C)nc4cnccc43)c(F)c1)cn2C(=O)N(C)C [ABT‐491],Pain induced by ATP‐triggered PAF release,[7],blocked
CC(C)c1cc(C(C)C)c(-c2csc(N(CCN(C)C)Cc3cccnc3)n2)c(C(C)C)c1 [SR27417A],Efficacy in multiple human chronic diseases,human chronic diseases,lack of efficacy
same,Efficacy in asthma patients,asthma patients,modest efficacy
CCOC[C@H](CC(C)C)N(C)S(=O)(=O)c1ccc(Cn2c(C)nc3cnccc32)cc1 [Nupafant],Ki,PAF receptor [2],1.7 ± 0.6 nM
Cc1nnc2n1-c1sc(CCC(=O)N3CCOCC3)cc1C(c1ccccc1Cl)=NC2 [WEB‐2086],Retinal blood vessel density,rats,helped preserve
same,Erythema induced by UV‐light,[8],reduction
same,Choroidal neovascularization and subretinal fibrosis induced by PAF,[9],inhibited
same,Fluoresceine leakage (retinal vascular leakage) after laser‐induced CNV,"[9]; mice, prior treatment, intraperitoneal and intravitreal administration",blockade
Cc1nnc2n1-c1sc(CCc3ccc(CC(C)C)cc3)cc1C(c1ccccc1Cl)=NC2C (stereo not drawn) [Y‐24180],Bronchial hyperresponsiveness,patients [10],improvement
"NCCc1c[nH]cn1 [HIS, histamine]",EC50,[3],3100 nM
CCCCCCCCCCCCCCCCCCNC(=O)OC[C@@H](COCCCC[n+]1ccsc1)OC(=O)OC [RO‐19‐3704],Ki,PAF receptor [2],201 ± 22.5 nM
COc1ccc(SCC(=S)N2CCc3c(sc4c3C(c3ccccc3Cl)=NCc3nnc(C)n3-4)C2)cc1OC [BN‐50739],Ki,PAF receptor [1]; [18],53.4 ± 1.9 nM
same,Ki,PAF receptor [2],28.6 ± 8.4 nM
COC(=O)C1=C(C)NC(C)=C(C(=O)OCCSc2ccccc2)C1C (stereo not drawn) [PCA‐4248],"Effect on PAF‐induced synthesis and secretion of IL‐6, IL‐8 and GM‐CSF",[11],curtailed
same,Effect on PAF‐induced IPs production,HCEPI/CEPI‐17‐CL4 cells,blocked
same,Ki,PAF receptor [1]; [18],634 nM
same,Antagonism of PAF‐induced [Ca2+]i mobilization,[12],antagonized
CCCCC[C@H](O)/C=C/[C@@H]1[C@@H](C/C=C\CCCC(=O)O)[C@@H](O)C[C@H]1O [PGF2α],Stimulation of [3H]‐IPs (in words),[3],inactive
"bradykinin (RPPGFSPFR; Bradykinin; UniProt P01042 381-389, looked up) [BK, mast cell mediator]",EC50,[3],0.83 nM
CCCCCCCCOc1ccccc1C(=O)Nc1ccc(C(=O)OCC[N+](C)(CC)CC)cc1 [Octylonium],Ki,PAF receptor [1]; [18],4335 ± 17.8 nM
platelet‐activating factor [PAF],EC50,[3],4.5 nM
same,Ki,PAF receptor [1]; [18],3.1 ± 0.6 nM
same,Ki,PAF receptor [6],26.5 ± 2 nM
same,Ki,PAF receptor [2],3.7 ± 0.4 nM
same,Kd,[13],0.5 nM
same,Kd,[14],0.8 to 4.3 nM
same,EC50,[12]; read-out: EC50 for [Ca2+]i mobilization,0.81 nM
CCOC(=O)[C@H](CC(C)C)N(C)S(=O)(=O)c1ccc(Cn2c(C)nc3cnccc32)cc1 [Lexipafant],Efficacy in multiple human chronic diseases,human chronic diseases,lack of efficacy
Hexanolamine,Ki,PAF receptor [2],164 ± 15.4 nM
Cc1nnc2n1-c1sc3c(c1C(c1ccccc1Cl)=N[C@H]2C)CCN(C(=O)C1CC1)C3 [E‐6123],Ki,PAF receptor [2],9.3 ± 0.3 nM
"endothelin (CSCSSLMDKECVYFCHLDIIW; ends and bridges not checked; cysteine pairing not given here; UniProt P05305 53-73, looked up)",Stimulation of [3H]‐IPs (in words),[3],inactive
CCOC(=O)C1=C(c2ccc(-n3c(C)nc4cnccc43)cc2)NC(C)=C(C(=O)Nc2ccccn2)[C@H]1c1ccccc1Cl [Modipafant],Efficacy in multiple human chronic diseases,human chronic diseases,lack of efficacy
"COc1ccc(NC(=S)N2CCc3c(sc4c3C(c3ccccc3Cl)=NCc3nnc(C)n3-4)C2)cc1 [BN‐50730 (Rocipafant) LAU‐8080, Rocipafant]",Ki,PAF receptor [2],44.8 ± 7.2 nM
CCCCC/C=C\C\C=C/C=C/C=C/[C@@H](SC[C@H](NC(=O)CC[C@H](N)C(=O)O)C(=O)NCC(=O)O)[C@@H](O)CCCC(=O)O [LTC4],EC50,[3],300 nM
Clc1ccc2c(c1)CCc1cccnc1C2=C1CCNCC1 [des‐loratadine],"Nasal discharge, sneezing and nasal itching",[4],significantly reduced
same,Ocular itching,[4],significantly reduced
CCC[n+]1cc(Br)cc(C(=O)N(CCC(=O)NCCOC(=O)N2CCc3ccccc3C2)c2ccccc2)c1.O=[N+]([O-])[O-] [TCV‐309],Organ dysfunction and morbidity linked to septic shock,[15],reduction
same,Ki,PAF receptor [1]; [18],9.4 ± 3.1 nM
same,Ki,PAF receptor [2],5.5 ± 0.2 nM
"CC1C(=O)OC2C(O)C34C5CC(C(C)(C)C)C36C(OC(=O)C6O)OC4(C(=O)O5)C12O (stereo not drawn) [BN‐52021(Ginkolide B), Ginkgolide B]",PAF‐induced ocular surface neovascularization,naïve mice,inhibited
same,Damage to rod outer segments,rod outer segments,effectively suppressed
same,PAF‐induced disruption of choroidal endothelial cell layer and polymorphonuclear leukocyte infiltration,animals,mostly abolished
same,PAF levels in patients,patients [16],reduction
CN(C)C(=O)n1cc(C(=O)c2ccn3c2CS[C@@H]3c2cccnc2)c2ccc(-c3ccc(F)cc3)cc21 [A‐85783],Ki,PAF receptor [2],6.9 ± 1 nM
CCCCCCCCCCCCCCCCCCNC(=O)OCC(COP(=O)([O-])OCC[n+]1ccsc1)OC (stereo not drawn) [CV‐3988],"Effect on PAF‐induced synthesis and secretion of IL‐6, IL‐8 and GM‐CSF",[11],curtailed
same,PAF‐induced ocular surface neovascularization,naïve mice,inhibited
same,Loss of retinal capillary endothelial cells,[17],reduced
same,Ki,PAF receptor [1]; [18],3090 ± 889 nM
same,Ki,PAF receptor [6],3780 ± 759 nM
same,Ki,PAF receptor [2],2900 ± 240 nM
same,Antagonism of PAF‐induced [Ca2+]i mobilization,[12],antagonized

# From article PMC10084252, “PAF‐induced inflammatory and immuno‐allergic ophthalmic diseases and their mitigation with PAF receptor antagonists: Cell and nuclear effects” (Biofactors (Oxford, England), 2022)
